Data published in patent US9155719B2, “N-acetyl-DL-leucine, neuroprotective and retinoprotective medicament” (priority 2010, dated 2015).

Key:
Assay type in all cases: in vivo, human
[1] = test system: patients with Retinitis Pigmentosa; test: Clinical observation, retinitis pigmentosa patients; conditions: seven patients: three 1 gr 2 times per day oral, four 2% eye drops 3 times per day
Description: The invention will be even further illustrated by the description of the clinical examples which follow and which, of course, are not limiting in nature. In these examples, the active ingredient, the N-acetyl-DL-leucine, was administered continuously (i.e., at least once a day) in oral or topical form, in an amount of 2 gr per day in the case of the oral form and 2% in the case of eye drops. This disorder corresponds to a dystrophy in the photoreceptors (cones and rods). It is characterized by the appearance of night blindness in infancy or adolescence, progressive contractions of the equatorial annular peripheral visual filed and results in a substantial loss in visual acuity or even blindness by adulthood. The N-acetyl-DL-leucine was used and induced an improvement of visual function: Seven patients were treated: three of them received 1 gr 2 times per day via oral administration; and four of them were subjected to a topical administration (2% eye drops), 3 times per day. All of them noticed an improvement of their visual acuity and visual field.

[2] = test system: patients with Starpardt's Disease; test: Clinical observation, Stargardt's disease twin patients; conditions: eye drops; one of two twin patients
Description: The invention will be even further illustrated by the description of the clinical examples which follow and which, of course, are not limiting in nature. In these examples, the active ingredient, the N-acetyl-DL-leucine, was administered continuously (i.e., at least once a day) in oral or topical form, in an amount of 2 gr per day in the case of the oral form and 2% in the case of eye drops. Two twin patients treated with N-acetyl-DL-leucine in the form of eye drops noticed an improvement of their visual acuity by 1/10 for one of them, and by 2/10 to 3/10 for the […].

[3] = test system: patients with a macular degeneration; test: Clinical observation, age-related or myopia-related macular degeneration; conditions: eleven patients; eye drops or tablets
Description: (§1) The invention will be even further illustrated by the description of the clinical examples which follow and which, of course, are not limiting in nature. In these examples, the active ingredient, the N-acetyl-DL-leucine, was administered continuously (i.e., at least once a day) in oral or topical form, in an amount of 2 gr per day in the case of the oral form and 2% in the case of eye drops. Eleven patients with a macular degeneration which were treated with N-acetyl-DL-leucine (eye drops or tablets) noticed an improvement of their visual acuity.

[4] = test system: patients with known glaucoma; test: Clinical observation, glaucomatous neuropathy or glaucoma
Description: as §1, with “Patients” for “Eleven patients”, “with known glaucoma experienced” for “with”, “decrease in their occular tension, and” for “macular degeneration which were treated with N-acetyl-DL-leucine (eye drops or tablets) noticed”, “acuity and visual field in a very short time as soon as the treatment was administrated. […] IV) Ametropia.” for “acuity.”

patients with myopia = test: Clinical observation, myopia; conditions: seven patients; eye drops
Description: (§2) The invention will be even further illustrated by the description of the clinical examples which follow and which, of course, are not limiting in nature. In these examples, the active ingredient, the N-acetyl-DL-leucine, was administered continuously (i.e., at least once a day) in oral or topical form, in an amount of 2 gr per day in the case of the oral form and 2% in the case of eye drops. More particularly, but not exclusively, it relates to eyedrops composed of N-acetyl-DL-leucine, which are intended for improving (i.e., in the present case, decreasing) the effects of presbyopia, myopia, hypermetropia and astigmatism, for stabilizing them or even for reversing the evolutive course thereof. • Myopia: seven patients were evaluated and received the N-acetyl-DL-leucine in the form of eye drops. • Result: in addition to the improvement of their visual acuity, the visual field, the refractive value was reduced. One can deduce therefrom that the N-acetyl-DL-leucine not only improves vision but also treats myopia. • Presbyopia: fourteen patients received the N-acetyl-DL-leucine in the form of eye drops and experienced an improvement of their near vision and a decrease in presbyopia. […]

patients with presbyopia = test: Clinical observation, presbyopia; conditions: fourteen patients; eye drops
Description: as §2

[5] = test system: patients with hypermetropia; test: Clinical observation, hypermetropia; conditions: eye drops
Description: as §2

astigmatic subjects = test: Clinical observation, astigmatism; conditions: eye drops
Description: as §2

[6] = test system: patients with visual difficulties at night (hemeralopia); test: Clinical observation, night vision (hemeralopia); conditions: all the patients with hemeralopia
Description: as §1, with “drops.” for “drops. Eleven patients with a macular degeneration which were treated with N-acetyl-DL-leucine (eye drops or tablets) noticed an improvement of their visual acuity.”

[7] = test system: "normal" patients without ocular pathology (aging individuals); test: Clinical observation, age-related physiological vision decline / normal patients; conditions: in many cases; absence of any occular pathology
Description: as §1, with “[…] In many cases,” for “Eleven patients with a macular degeneration which were treated with”, “improved visual function (visual acuity, contrast vision and visual field) in the absence” for “(eye drops or tablets) noticed an improvement”, “any occular pathology.” for “their visual acuity.”

Compound: CC(=O)NC(CC(C)C)C(=O)O (racemic) [N-acetyl-DL-leucine]
- visual acuity [1]: improvement
- visual field [1]: improvement
- improvement of visual acuity [2]: 1/10
- visual acuity [3]: improvement
- occular tension ([4]; in a very short time as soon as the treatment was administrated): decrease
- visual field ([4]; oral route or eye drops): regression of the deficiency
- visual acuity ([4]; oral route or topical route (eye drops)): marked improvement
- refractive value (patients with myopia): reduced
- visual acuity (patients with myopia): improvement
- visual field (patients with myopia): improvement
- near vision (patients with presbyopia): improvement
- presbyopia (patients with presbyopia): decrease
- observations in hypermetropia (near vision, ametropia) [5]: the same observations as for presbyopia
- visual acuity (astigmatic subjects): improvement
- night vision [6]: greatly improved
- visual function (visual acuity, contrast vision and visual field) [7]: improved
